The Kinase Knowledgebase extract (Sharma et al. 2016)

Biological target: MAPK14 (human) (UniProt Q16539)
Test: Inhibition of MAPK14 Kinase Activity

MAPK14 (human), sequence (Q16539 whole entry, looked up): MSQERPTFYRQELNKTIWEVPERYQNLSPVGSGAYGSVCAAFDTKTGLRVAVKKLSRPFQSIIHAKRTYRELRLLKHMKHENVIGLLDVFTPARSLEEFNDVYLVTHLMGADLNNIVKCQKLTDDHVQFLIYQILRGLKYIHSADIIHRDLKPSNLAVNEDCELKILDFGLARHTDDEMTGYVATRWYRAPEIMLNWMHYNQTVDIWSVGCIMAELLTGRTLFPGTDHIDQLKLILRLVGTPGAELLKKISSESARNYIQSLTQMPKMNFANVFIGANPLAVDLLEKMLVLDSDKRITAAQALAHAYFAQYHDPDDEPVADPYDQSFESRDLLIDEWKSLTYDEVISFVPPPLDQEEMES

IC50, ≤ 1 µM:
CC(C)NC(=O)c1csc(-c2c(-c3ccc(F)cc3)n[nH]c2C2CCN(C(=O)C3CCCO3)CC2)n1 (configuration not stated), CCCCOc1ccc(C(=O)N2CCN(Cc3nc(-c4ccc(F)cc4)c(-c4nc(C(=O)NC(C)C)cs4)o3)CC2)cc1, CC(C)NC(=O)c1csc(-c2oc(CN3CCN(C(=O)C(C)(C)C)CC3)nc2-c2ccc(F)cc2)n1, CC(C)NC(=O)c1csc(-c2c(-c3ccc(F)cc3)noc2CN(C)CCO)n1, Cc1nc(-c2ccc(F)cc2)c(-c2nc(C(=O)NCc3cccc(F)c3)cs2)s1, CC(C)NC(=O)c1csc(-c2oc(CNC(=O)c3ccc(Cl)nc3)nc2-c2ccc(F)cc2)n1, CC(C)NC(=O)c1csc(-c2oc(CN3CCN(C(=O)c4cc(O)ccc4O)CC3)nc2-c2ccc(F)cc2)n1, CC(C)NC(=O)c1csc(-c2oc(CN3CCN(C(=O)c4ccncc4)CC3)nc2-c2ccc(F)cc2)n1, Cc1ccc(F)cc1C(=O)NCc1nc(-c2ccc(F)cc2)c(-c2nc(C(=O)NC(C)C)cs2)o1, O=C(NC1CC1)c1csc(-c2c(-c3ccc(F)cc3)n[nH]c2C2CCNCC2)n1, CCOC(=O)CC(=O)N1CCC(c2[nH]nc(-c3ccc(F)cc3)c2-c2nc(C(=O)NC(C)C)cs2)CC1, Cc1nc(-c2ccc(F)cc2)c(-c2nc(C(=O)Nc3ccc(N(C)C)cc3)cs2)s1, Cc1nc(-c2ccc(F)cc2)c(-c2nc(C(=O)N[C@H](C)c3ccccc3)cs2)s1, CC(=O)Nc1ccc(NC(=O)c2csc(-c3sc(C)nc3-c3ccc(F)cc3)n2)cc1, CC(C)NC(=O)c1csc(-c2c(-c3ccc(F)cc3)n[nH]c2C2CCN(C(=O)C(C)(C)C)CC2)n1, COc1cc2c(cc1OC)CN(C(=O)c1csc(-c3sc(C)nc3-c3ccc(F)cc3)n1)CC2, Cc1nc(-c2ccc(F)cc2)c(-c2nc(C(=O)NCCc3ccc4c(c3)OCO4)cs2)s1, CC(C)NC(=O)c1csc(-c2oc(CNC(=O)c3ccccc3Cl)nc2-c2ccc(F)cc2)n1, C#CCNC(=O)c1csc(-c2c(-c3ccc(F)cc3)ncn2C2CCN(C(=O)CO)CC2)n1, Cc1nc(-c2ccc(F)cc2)c(-c2nc(C(=O)NCCc3ccccc3F)cs2)s1, CC(=O)c1cccc(NCc2onc(-c3ccc(F)cc3)c2-c2nc(C(=O)NC(C)C)cs2)c1, CC(C)NC(=O)c1csc(-c2oc(CN3CCN(C(=O)c4cnc(O)c(Cl)c4)CC3)nc2-c2ccc(F)cc2)n1, O=C(NCC1CC1)c1csc(-c2c(-c3ccc(F)cc3)n[nH]c2C2CCNCC2)n1, CC(CO)NC(=O)c1csc(-c2c(-c3ccc(F)cc3)n[nH]c2C2CCNCC2)n1 (configuration not stated), CCCC(C)NC(=O)c1csc(-c2c(-c3ccc(F)cc3)n[nH]c2C2CCNCC2)n1 (configuration not stated), COc1ccccc1NC(=O)c1csc(-c2sc(C)nc2-c2ccc(F)cc2)n1, CC(C)NC(=O)c1csc(-c2oc(CNC(=O)c3ccc(F)cc3F)nc2-c2ccc(F)cc2)n1, CC(=O)Oc1cccc(C(=O)N2CCN(Cc3nc(-c4ccc(F)cc4)c(-c4nc(C(=O)NC(C)C)cs4)o3)CC2)c1, Cc1nc(-c2ccc(F)cc2)c(-c2nc(C(=O)NCC#N)cs2)s1, CC(C)NC(=O)c1csc(-c2oc(CNC(=O)C=Cc3ccccc3)nc2-c2ccc(F)cc2)n1, CC(C)NC(=O)c1csc(-c2oc(CN3CCN(C(=O)c4cc([N+](=O)[O-])ccc4O)CC3)nc2-c2ccc(F)cc2)n1, COCCNCc1nc(-c2ccc(F)cc2)c(-c2nc(C(=O)NC(C)C)cs2)o1
